The supplement of paper PMC10627819

How the values were obtained:
[1] = system: B. subtilis 168; assay: fitness (endpoint OD595 vs no drug) (fraction); higher = more growth
Method in brief: (§1)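 Each well of a 384-well plate received 30 µl of culture at OD595 0.01, or 55 µl for S. pneumoniae. TSB, LB Lennox or CY served as media at 37 °C. OD595 was taken every 30 min for 14 h and corrected by subtracting the first reading. Fitness is the optical density at stationary-phase entry divided by the robust mean of no-drug controls, capped at 1.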

[2] = system: S. aureus DSM 20231; assay: as above
Method in brief: as §1

[3] = system: S. pneumoniae D39V; assay: as above
Method in brief: as §1

[4] = system: B. subtilis 168; assay: Bliss interaction score (quartile over a dose matrix) (fitness difference); higher = more antagonism (negative = synergy)
Method in brief: (§2)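 Fitness is OD595 at stationary-phase entry relative to the plate's robust no-drug mean, capped at 1. Single-drug fitness was inferred from combinations. The Bliss score is observed minus product-expected fitness, summarised by quartiles over technical, biological and donor/recipient replicates.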

[5] = system: S. aureus DSM 20231; assay: as above
Method in brief: as §2

[6] = system: S. aureus Newman; assay: as above
Method in brief: as §2

[7] = system: S. pneumoniae D39V; assay: as above
Method in brief: as §2

[8] = system: S. aureus Newman; assay: fitness (endpoint OD595 vs no drug) (fraction); higher = more growth
Method in brief: as §1
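Throughout, for Bliss interaction score (quartile over a dose matrix): first quartile when negative (synergy) and third quartile when positive (antagonism).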

CC(=O)NC[C@H]1CN(c2ccc(N3CCOCC3)c(F)c2)C(=O)O1 [Linezolid] + Cc1ncc([N+](=O)[O-])n1CCO [Metronidazole]
fitness, one replicate
Conditions | partner 0.625 µg/mL | partner 1.25 µg/mL | partner 2.5 µg/mL
[1], first compound 0.0625 µg/mL | 0.86 | 0.895 | 0.875
[2], first compound 1 µg/mL | 0.0445 | 0.0462 | 0.042

Conditions | fitness
[1], first compound 0.125 µg/mL, partner 0.625 µg/mL | 0.648
[1], first compound 0.125 µg/mL, partner 1.25 µg/mL | 0.607
[1], first compound 0.125 µg/mL, partner 2.5 µg/mL | 0.597
[1], first compound 0.25 µg/mL, partner 0.625 µg/mL | 0.0733
[1], first compound 0.25 µg/mL, partner 1.25 µg/mL | 0.0982
[1], first compound 0.25 µg/mL, partner 2.5 µg/mL | 0.105
[1], first compound 0.5 µg/mL, partner 0.625 µg/mL | 0.0494
[1], first compound 0.5 µg/mL, partner 1.25 µg/mL | 0.0531
[1], first compound 0.5 µg/mL, partner 2.5 µg/mL | 0.0511
[2], first compound 0.125 µg/mL, partner 0.625 µg/mL | 0.947
[2], first compound 0.125 µg/mL, partner 1.25 µg/mL | 0.94
[2], first compound 0.125 µg/mL, partner 2.5 µg/mL | 0.942
[2], first compound 0.25 µg/mL, partner 0.625 µg/mL | 0.621
[2], first compound 0.25 µg/mL, partner 1.25 µg/mL | 0.723
[3], first compound 0.105 µg/mL, partner 1.25 µg/mL | 0.866
[3], first compound 0.105 µg/mL, partner 2.5 µg/mL | 0.877
[3], first compound 0.105 µg/mL, partner 5 µg/mL | 0.841
[3], first compound 0.2 µg/mL, partner 1.073 µg/mL | 0.832
[3], first compound 0.2 µg/mL, partner 2.145 µg/mL | 0.804
[3], first compound 0.2 µg/mL, partner 4.29 µg/mL | 0.817
[3], first compound 0.21 µg/mL, partner 1.25 µg/mL | 0.776
[3], first compound 0.21 µg/mL, partner 2.5 µg/mL | 0.78
[3], first compound 0.21 µg/mL, partner 5 µg/mL | 0.753
[3], first compound 0.4 µg/mL, partner 1.073 µg/mL | 0.741
[3], first compound 0.4 µg/mL, partner 2.145 µg/mL | 0.77
[3], first compound 0.4 µg/mL, partner 4.29 µg/mL | 0.714
[3], first compound 0.42 µg/mL, partner 1.25 µg/mL | 0.663
[3], first compound 0.42 µg/mL, partner 2.5 µg/mL | 0.646
[3], first compound 0.42 µg/mL, partner 5 µg/mL | 0.63
[3], first compound 0.8 µg/mL, partner 2.145 µg/mL | 0.445
[3], first compound 0.8 µg/mL, partner 4.29 µg/mL | 0.424

Conditions | Bliss interaction score
[4] | 0.103
[5] | 0.111
[6] | 0.0844
[7] | 0.143

CC(=O)NC[C@H]1CN(c2ccc(N3CCOCC3)c(F)c2)C(=O)O1 [Linezolid] + Cn1nnc(-c2ccc(-c3ccc(N4C[C@H](CO)OC4=O)cc3F)cn2)n1 [Tedizolid]
fitness
Conditions | partner 0.03125 µg/mL | partner 0.0625 µg/mL | partner 0.125 µg/mL | partner 0.25 µg/mL | partner 0.5 µg/mL
[2], first compound 0.125 µg/mL | – | 0.689 | 0.501 | 0.257 | –
[2], first compound 0.25 µg/mL | – | 0.456 | 0.26 | 0.141 | –
[2], first compound 0.5 µg/mL | – | 0.119 | 0.0888 | 0.0646 | –
[3], first compound 0.105 µg/mL | – | – | 0.682 | 0.441 | 0.141
[3], first compound 0.2 µg/mL | 0.819 | 0.825 | 0.723 | – | –
[3], first compound 0.21 µg/mL | – | – | 0.58 | 0.286 | 0.0818
[3], first compound 0.4 µg/mL | 0.73 | 0.724 | 0.633 | – | –
[3], first compound 0.42 µg/mL | – | – | 0.249 | 0.107 | 0.0451
[3], first compound 0.8 µg/mL | 0.549 | 0.578 | 0.465 | – | –

[2], first compound 1 µg/mL, one replicate
Conditions | fitness
partner 0.0625 µg/mL | 0.0257
partner 0.125 µg/mL | 0.0309
partner 0.25 µg/mL | 0.0295

Conditions | Bliss interaction score
[4] | -0.188
[5] | -0.185
[6] | -0.153
[7] | -0.148

CN[C@@H]1[C@H](O)[C@H](NC)[C@H]2O[C@@]3(O)C(=O)C[C@@H](C)O[C@H]3O[C@@H]2[C@H]1O [Spectinomycin] + COc1cc(Cc2cnc(N)nc2N)cc(OC)c1OC [Trimethoprim]
fitness, one replicate
Conditions | first compound 2 µg/mL | first compound 4 µg/mL | first compound 8 µg/mL | first compound 32 µg/mL | first compound 64 µg/mL
[1], partner 0.1 µg/mL | 0.871 | 0.821 | 0.686 | – | –
[1], partner 0.125 µg/mL | 0.707 | 0.606 | 0.414 | – | –
[1], partner 0.2 µg/mL | 0.781 | 0.762 | 0.386 | – | –
[1], partner 0.4 µg/mL | 0.473 | 0.556 | 0.223 | – | –
[1], partner 1 µg/mL | 0.508 | 0.338 | 0.167 | – | –
[1], partner 2 µg/mL | 0.408 | 0.187 | 0.0702 | – | –
[2], partner 0.125 µg/mL | – | 0.808 | 0.822 | 0.629 | 0.026
[2], partner 0.25 µg/mL | – | – | – | 0.573 | 0.0208
[2], partner 0.5 µg/mL | – | – | – | 0.299 | 0.0374

fitness
Conditions | first compound 4 µg/mL | first compound 8 µg/mL | first compound 16 µg/mL
[1], partner 0.25 µg/mL | – | 0.482 | –
[1], partner 0.5 µg/mL | 0.496 | 0.308 | –
[2], partner 0.125 µg/mL | – | – | 0.654
[2], partner 0.25 µg/mL | 0.598 | 0.593 | 0.649
[2], partner 1 µg/mL | 0.0368 | 0.0298 | 0.0188

Conditions | Bliss interaction score
[4] | -0.0925
[5] | 0.0932
[6] | 0.0863
[7] | -0.161

CN[C@@H]1[C@H](O[C@H]2[C@H](O[C@H]3[C@H](O)[C@@H](O)[C@H](N=C(N)N)[C@@H](O)[C@@H]3N=C(N)N)O[C@@H](C)[C@]2(O)C=O)O[C@@H](CO)[C@H](O)[C@H]1O [Streptomycin] + CN(C)c1cc(NC(=O)CNC(C)(C)C)c(O)c2c1C[C@H]1C[C@H]3[C@H](N(C)C)C(O)=C(C(N)=O)C(=O)[C@@]3(O)C(O)=C1C2=O [Tigecycline]
fitness
Conditions | partner 0.039 µg/mL | partner 0.078 µg/mL | partner 0.156 µg/mL | partner 0.65 µg/mL | partner 1.3 µg/mL | partner 2.6 µg/mL
[1], first compound 2 µg/mL | 0.974 | 0.985 | 0.968 | – | – | –
[3], first compound 2 µg/mL | – | – | – | 0.96 | 0.973 | 0.891
[3], first compound 4 µg/mL | – | – | – | 0.968 | 0.989 | 0.962
[3], first compound 8 µg/mL | – | – | – | 0.88 | 0.938 | 0.914
[8], first compound 1 µg/mL | 0.94 | 0.986 | 0.971 | – | – | –
[8], first compound 2 µg/mL | 0.966 | 0.95 | 0.989 | – | – | –

fitness, one replicate
Conditions | partner 0.125 µg/mL | partner 0.25 µg/mL | partner 0.5 µg/mL | partner 0.65 µg/mL | partner 1.3 µg/mL | partner 2.6 µg/mL
[1], first compound 2 µg/mL | 0.98 | 0.955 | 0.951 | – | – | –
[1], first compound 4 µg/mL | 0.982 | 0.914 | ≥ 1 | – | – | –
[1], first compound 8 µg/mL | 0.481 | 0.474 | 0.519 | – | – | –
[3], first compound 16 µg/mL | – | – | – | 0.866 | 0.81 | 0.829

Conditions | Bliss interaction score
[4] | 0.145
[5] | 0.064
[6] | 0.0427
[7] | 0.0816

CN[C@@H]1[C@H](O[C@H]2[C@H](O[C@H]3[C@H](O)[C@@H](O)[C@H](N=C(N)N)[C@@H](O)[C@@H]3N=C(N)N)O[C@@H](C)[C@]2(O)C=O)O[C@@H](CO)[C@H](O)[C@H]1O [Streptomycin] + CN(N=O)C(=O)N[C@@H](C=O)[C@@H](O)[C@H](O)[C@H](O)CO [Streptozotocin]
fitness
Conditions | first compound 1 µg/mL | first compound 2 µg/mL | first compound 4 µg/mL | first compound 8 µg/mL
[1], partner 0.15 µg/mL | – | 0.954 | 0.308 | 0.0987
[1], partner 0.3 µg/mL | – | 0.978 | 0.332 | 0.0267
[1], partner 0.6 µg/mL | – | 0.98 | 0.266 | 0.0223
[3], partner 1.2 µg/mL | – | 0.988 | 0.975 | 0.896
[3], partner 2.4 µg/mL | – | 0.945 | 0.932 | 0.951
[3], partner 4.8 µg/mL | – | 0.954 | 0.958 | 0.903
[8], partner 0.15 µg/mL | 0.884 | 0.818 | – | –
[8], partner 0.3 µg/mL | 0.767 | 0.649 | – | –
[8], partner 0.6 µg/mL | 0.555 | 0.485 | 0.473 | –

[3], first compound 16 µg/mL, one replicate
Conditions | fitness
partner 1.2 µg/mL | 0.744
partner 2.4 µg/mL | 0.773
partner 4.8 µg/mL | 0.782

Conditions | Bliss interaction score
[4] | -0.134
[5] | -0.109
[6] | 0.0357
[7] | 0.062
